Source: paper PMC7316778 (Nature Communications, 2020)
Where “and” joins values, the source holds several entries; their conditions need not be identical. Equal values may be shown once. Read-outs that look alike come from different tables or passages of the source.

Columns and labels:
Test in all cases: SelectScreen kinase assay
MAP3K8 (COT) [1] = settings: IC50 on that kinase divided by IC50 on FES^S700C
Protocol: (§1) Selectivity profiling assays were performed by the Invitrogen SelectScreen™ Services. […] The concentration of ATP was selected to be equal to the KM, unless indicated otherwise.

MAP3K8 (COT) [2] = biological target: MAP3K8 (COT) (Homo sapiens, UniProt P41279)
Protocol: as §1

ERN2 = ERN2 (Homo sapiens, UniProt Q76MJ5)
Protocol: as §1

PRKX = PRKX (Homo sapiens, UniProt P51817)
Protocol: as §1

RPS6KA3 (RSK2) = RPS6KA3 (RSK2) (Homo sapiens, UniProt P51812)
Protocol: as §1

PAK7 (KIAA1264) = PAK7 (KIAA1264) (Homo sapiens, UniProt Q9P286)
Protocol: as §1

MAPK3 (ERK1) = MAPK3 (ERK1) (Homo sapiens, UniProt P27361)
Protocol: as §1

CSNK1G3 (CK1 gamma 3) = CSNK1G3 (CK1 gamma 3) (Homo sapiens, UniProt Q9Y6M4)
Protocol: as §1

PRKCI (PKC iota) = biological target: T1, PRKCI (PKC iota) (Homo sapiens, UniProt P41743); settings: for Inhibition at 1 µM (%): PRKCI (PKC iota), ZLYTE, ATP Km app
T1 sequence (P41743 1-596): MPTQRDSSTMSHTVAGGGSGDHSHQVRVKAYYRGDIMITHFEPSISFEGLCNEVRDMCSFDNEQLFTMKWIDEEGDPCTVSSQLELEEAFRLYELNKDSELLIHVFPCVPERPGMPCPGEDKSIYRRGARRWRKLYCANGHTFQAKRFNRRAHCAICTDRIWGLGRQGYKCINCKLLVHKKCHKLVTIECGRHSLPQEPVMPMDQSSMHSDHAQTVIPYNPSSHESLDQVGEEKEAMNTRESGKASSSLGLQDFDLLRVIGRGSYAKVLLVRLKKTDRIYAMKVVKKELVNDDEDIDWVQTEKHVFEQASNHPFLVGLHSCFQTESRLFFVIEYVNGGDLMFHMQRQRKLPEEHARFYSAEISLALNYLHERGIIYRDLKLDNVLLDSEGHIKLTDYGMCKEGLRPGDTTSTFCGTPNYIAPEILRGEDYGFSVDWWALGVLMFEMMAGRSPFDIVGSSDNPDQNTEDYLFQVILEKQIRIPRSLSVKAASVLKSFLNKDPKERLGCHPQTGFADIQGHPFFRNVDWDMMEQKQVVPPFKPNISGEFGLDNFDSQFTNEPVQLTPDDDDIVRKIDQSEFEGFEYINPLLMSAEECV
Protocol: as §1

SNF1LK2 = SNF1LK2 (Homo sapiens, UniProt Q9H0K1)
Protocol: as §1

EPHB4 = biological target: T2, EPHB4 (Homo sapiens, UniProt P54760); settings: for Inhibition at 1 µM (%): EPHB4, ZLYTE, ATP Km app
T2 sequence (P54760 16-987): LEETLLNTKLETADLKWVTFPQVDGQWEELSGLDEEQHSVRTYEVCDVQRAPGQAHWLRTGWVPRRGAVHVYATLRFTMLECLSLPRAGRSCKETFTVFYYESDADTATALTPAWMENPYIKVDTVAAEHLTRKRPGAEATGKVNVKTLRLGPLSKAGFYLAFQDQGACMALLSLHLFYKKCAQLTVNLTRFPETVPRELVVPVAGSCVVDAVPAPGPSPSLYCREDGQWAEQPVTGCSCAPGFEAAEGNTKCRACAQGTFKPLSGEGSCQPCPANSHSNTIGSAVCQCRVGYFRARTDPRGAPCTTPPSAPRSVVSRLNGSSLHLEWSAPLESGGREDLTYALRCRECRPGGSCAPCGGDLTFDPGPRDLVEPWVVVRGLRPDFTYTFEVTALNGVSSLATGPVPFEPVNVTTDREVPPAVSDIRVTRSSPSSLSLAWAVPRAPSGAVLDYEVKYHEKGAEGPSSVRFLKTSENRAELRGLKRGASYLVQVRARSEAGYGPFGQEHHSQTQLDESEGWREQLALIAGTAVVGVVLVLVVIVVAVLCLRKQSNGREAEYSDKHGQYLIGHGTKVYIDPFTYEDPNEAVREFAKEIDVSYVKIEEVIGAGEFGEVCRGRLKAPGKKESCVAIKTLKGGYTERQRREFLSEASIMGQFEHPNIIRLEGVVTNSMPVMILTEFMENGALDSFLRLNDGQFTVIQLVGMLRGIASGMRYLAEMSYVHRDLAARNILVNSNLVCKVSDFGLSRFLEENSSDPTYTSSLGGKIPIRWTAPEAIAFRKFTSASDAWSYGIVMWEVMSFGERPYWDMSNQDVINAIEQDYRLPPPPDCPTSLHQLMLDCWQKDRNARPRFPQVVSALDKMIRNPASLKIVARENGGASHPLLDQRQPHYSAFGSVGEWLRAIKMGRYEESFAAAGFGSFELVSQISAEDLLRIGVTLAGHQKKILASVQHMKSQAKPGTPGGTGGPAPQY
Protocol: as §1

[3] = 1 h, 1 μM WEL028, 1 h preincubation
[4] = 1 µM, ZLYTE, ATP Km app, listed as WEL028, 1 µM

PAK7 (KIAA1264), sequence (Q9P286 whole entry): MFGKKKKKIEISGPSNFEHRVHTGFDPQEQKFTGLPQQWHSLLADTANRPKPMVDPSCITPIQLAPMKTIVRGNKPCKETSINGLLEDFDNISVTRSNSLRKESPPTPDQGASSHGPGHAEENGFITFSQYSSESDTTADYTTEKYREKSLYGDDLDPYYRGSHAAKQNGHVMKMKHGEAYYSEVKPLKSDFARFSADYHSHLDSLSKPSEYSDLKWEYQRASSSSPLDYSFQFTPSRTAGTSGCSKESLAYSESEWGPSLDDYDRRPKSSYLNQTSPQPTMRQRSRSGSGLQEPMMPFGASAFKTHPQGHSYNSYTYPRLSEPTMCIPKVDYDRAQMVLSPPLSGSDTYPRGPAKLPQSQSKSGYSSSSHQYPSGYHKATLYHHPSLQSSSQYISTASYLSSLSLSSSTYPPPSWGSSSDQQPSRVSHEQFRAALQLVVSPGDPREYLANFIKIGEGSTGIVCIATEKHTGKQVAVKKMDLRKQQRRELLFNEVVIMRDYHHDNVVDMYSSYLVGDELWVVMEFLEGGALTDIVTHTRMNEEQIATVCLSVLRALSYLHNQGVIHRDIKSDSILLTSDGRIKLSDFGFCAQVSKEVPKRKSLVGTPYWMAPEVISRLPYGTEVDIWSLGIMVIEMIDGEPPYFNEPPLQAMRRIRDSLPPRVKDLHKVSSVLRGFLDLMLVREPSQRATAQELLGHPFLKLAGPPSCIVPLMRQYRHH
PRKX, sequence (P51817 whole entry): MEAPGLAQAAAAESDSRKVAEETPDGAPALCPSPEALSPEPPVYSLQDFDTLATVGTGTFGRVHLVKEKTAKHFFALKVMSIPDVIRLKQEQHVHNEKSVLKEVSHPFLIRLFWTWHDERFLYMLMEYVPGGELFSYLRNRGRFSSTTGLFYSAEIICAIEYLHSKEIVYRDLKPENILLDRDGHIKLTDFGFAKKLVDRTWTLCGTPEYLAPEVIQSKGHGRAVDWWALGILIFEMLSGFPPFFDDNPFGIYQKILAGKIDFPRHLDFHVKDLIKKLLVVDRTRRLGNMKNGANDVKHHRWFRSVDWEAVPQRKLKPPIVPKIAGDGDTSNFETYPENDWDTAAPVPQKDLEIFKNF
MAPK3 (ERK1), sequence (P27361 whole entry): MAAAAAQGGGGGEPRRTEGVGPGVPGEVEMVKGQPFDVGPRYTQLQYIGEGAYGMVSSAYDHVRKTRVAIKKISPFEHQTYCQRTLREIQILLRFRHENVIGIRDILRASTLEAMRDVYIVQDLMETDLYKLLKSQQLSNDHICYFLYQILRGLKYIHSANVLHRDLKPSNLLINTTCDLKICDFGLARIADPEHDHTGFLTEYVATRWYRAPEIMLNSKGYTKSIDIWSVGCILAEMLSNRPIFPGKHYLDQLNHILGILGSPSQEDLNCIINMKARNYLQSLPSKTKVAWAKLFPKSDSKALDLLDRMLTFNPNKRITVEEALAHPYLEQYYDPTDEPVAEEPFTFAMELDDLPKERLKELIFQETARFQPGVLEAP
SNF1LK2, sequence (Q9H0K1 whole entry): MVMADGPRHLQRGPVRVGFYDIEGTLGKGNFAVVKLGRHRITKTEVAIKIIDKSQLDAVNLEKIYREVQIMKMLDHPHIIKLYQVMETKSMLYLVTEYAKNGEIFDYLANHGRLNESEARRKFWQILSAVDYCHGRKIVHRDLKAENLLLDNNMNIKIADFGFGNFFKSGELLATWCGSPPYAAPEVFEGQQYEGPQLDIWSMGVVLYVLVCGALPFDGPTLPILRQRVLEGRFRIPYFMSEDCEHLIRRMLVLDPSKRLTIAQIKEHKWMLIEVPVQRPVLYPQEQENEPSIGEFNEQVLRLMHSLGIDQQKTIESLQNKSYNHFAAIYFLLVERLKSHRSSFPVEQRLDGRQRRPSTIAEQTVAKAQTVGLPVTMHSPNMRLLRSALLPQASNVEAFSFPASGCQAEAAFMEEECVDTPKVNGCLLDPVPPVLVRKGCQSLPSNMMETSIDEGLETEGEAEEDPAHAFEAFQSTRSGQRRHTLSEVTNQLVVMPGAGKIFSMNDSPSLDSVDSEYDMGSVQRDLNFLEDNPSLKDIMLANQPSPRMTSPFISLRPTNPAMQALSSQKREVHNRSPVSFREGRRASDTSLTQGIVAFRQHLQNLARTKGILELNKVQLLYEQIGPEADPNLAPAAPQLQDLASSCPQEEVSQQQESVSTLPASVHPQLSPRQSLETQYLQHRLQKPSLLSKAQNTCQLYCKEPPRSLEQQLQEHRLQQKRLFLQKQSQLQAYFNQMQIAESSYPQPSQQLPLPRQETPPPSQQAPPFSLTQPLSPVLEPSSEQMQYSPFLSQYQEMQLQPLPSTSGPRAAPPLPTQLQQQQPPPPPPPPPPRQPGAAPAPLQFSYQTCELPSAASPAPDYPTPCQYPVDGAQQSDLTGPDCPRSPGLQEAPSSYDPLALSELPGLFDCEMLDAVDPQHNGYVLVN
MAP3K8 (COT) (Homo sapiens, UniProt P41279), sequence (P41279 whole entry, species assumed): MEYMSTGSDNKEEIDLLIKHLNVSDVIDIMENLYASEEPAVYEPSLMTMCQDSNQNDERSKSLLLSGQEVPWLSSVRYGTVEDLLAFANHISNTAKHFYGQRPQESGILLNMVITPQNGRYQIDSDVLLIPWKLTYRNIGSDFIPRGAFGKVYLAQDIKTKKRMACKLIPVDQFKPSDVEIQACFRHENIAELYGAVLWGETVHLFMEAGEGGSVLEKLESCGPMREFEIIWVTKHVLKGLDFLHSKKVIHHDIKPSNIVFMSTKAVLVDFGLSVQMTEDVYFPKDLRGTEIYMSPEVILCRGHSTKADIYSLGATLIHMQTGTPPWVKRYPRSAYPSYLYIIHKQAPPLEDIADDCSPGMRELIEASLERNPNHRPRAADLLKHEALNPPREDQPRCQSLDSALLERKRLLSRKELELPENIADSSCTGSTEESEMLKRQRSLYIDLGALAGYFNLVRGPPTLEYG
CSNK1G3 (CK1 gamma 3), sequence (Q9Y6M4 whole entry): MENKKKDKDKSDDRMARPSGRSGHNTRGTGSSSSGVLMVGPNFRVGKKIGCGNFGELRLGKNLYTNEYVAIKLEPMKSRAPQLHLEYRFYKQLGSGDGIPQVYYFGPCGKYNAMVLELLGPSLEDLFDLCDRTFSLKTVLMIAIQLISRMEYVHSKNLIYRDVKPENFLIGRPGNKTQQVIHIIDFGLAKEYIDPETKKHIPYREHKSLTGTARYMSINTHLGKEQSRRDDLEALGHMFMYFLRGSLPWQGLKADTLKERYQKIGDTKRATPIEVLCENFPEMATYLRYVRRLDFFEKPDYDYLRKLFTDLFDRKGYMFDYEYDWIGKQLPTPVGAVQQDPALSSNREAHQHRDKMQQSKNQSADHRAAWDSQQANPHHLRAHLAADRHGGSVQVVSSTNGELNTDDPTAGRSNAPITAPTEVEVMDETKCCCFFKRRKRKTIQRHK
RPS6KA3 (RSK2), sequence (P51812 whole entry): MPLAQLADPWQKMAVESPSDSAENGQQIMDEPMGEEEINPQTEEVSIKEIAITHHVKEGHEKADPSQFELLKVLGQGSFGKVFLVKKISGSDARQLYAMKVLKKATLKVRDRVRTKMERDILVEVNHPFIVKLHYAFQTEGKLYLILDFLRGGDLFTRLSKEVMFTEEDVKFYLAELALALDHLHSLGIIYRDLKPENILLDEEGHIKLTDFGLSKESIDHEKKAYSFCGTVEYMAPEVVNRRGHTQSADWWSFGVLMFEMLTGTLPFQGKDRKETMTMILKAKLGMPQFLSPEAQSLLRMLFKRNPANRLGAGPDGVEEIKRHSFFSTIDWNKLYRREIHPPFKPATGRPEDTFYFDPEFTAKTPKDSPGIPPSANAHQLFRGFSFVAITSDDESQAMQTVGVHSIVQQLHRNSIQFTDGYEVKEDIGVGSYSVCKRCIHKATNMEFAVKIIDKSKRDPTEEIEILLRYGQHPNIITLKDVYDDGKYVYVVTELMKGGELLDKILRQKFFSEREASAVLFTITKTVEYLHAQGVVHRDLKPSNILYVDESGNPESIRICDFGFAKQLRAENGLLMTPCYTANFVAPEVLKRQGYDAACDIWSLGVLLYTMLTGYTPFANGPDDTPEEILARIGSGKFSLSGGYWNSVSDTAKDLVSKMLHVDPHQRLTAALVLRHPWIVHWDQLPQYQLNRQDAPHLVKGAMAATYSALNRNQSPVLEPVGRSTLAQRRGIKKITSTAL
ERN2, sequence (Q76MJ5 35-926): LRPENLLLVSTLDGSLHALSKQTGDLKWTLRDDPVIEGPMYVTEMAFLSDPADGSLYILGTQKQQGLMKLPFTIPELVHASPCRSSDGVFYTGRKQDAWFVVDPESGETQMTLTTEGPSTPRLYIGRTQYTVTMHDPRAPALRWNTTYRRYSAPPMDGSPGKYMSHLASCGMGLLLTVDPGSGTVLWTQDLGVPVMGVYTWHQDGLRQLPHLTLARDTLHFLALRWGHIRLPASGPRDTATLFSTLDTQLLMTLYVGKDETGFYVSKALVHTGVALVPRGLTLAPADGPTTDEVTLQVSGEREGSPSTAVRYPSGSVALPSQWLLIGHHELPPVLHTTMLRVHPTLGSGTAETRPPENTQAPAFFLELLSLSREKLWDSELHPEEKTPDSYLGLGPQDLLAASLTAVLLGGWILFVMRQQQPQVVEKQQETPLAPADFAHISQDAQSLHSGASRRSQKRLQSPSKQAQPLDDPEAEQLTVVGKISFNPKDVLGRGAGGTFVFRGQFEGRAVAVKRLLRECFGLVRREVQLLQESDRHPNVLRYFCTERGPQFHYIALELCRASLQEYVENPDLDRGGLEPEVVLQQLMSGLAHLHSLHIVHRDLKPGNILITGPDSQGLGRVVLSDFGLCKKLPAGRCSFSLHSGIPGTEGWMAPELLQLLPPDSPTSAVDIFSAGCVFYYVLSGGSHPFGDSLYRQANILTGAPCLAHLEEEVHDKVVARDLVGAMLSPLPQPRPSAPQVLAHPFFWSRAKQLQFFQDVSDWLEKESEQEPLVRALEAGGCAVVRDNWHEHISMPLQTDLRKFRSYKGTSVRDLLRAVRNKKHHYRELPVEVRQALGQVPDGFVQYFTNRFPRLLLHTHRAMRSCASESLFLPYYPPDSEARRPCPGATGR

C#CCOc1ccc(Nc2ncc(Cl)c(Nc3ccccc3NC(=O)C=C)n2)c(OC)c1 [Compound 6]
Apparent fold selectivity (MAP3K8 (COT) [1]): 57 fold
IC50 (MAP3K8 (COT) [2]): 0.251 µM
inhibition at 1 µM (MAP3K8 (COT) [2]; [3]): 77%
inhibition at 10 µM (MAP3K8 (COT) [2]; 1 h, log[inhibitor] (M) -5.00, ZLYTE, ATP 100): 100%
inhibition at 3.311 µM (MAP3K8 (COT) [2]; 1 h, log[inhibitor] (M) -5.48, ZLYTE, ATP 100): 101%
inhibition at 1.122 µM (MAP3K8 (COT) [2]; 1 h, log[inhibitor] (M) -5.95, ZLYTE, ATP 100): 95%
inhibition at 0.3715 µM (MAP3K8 (COT) [2]; 1 h, log[inhibitor] (M) -6.43, ZLYTE, ATP 100): 67%
inhibition at 0.123 µM (MAP3K8 (COT) [2]; 1 h, log[inhibitor] (M) -6.91, ZLYTE, ATP 100): 46%
inhibition at 0.04074 µM (MAP3K8 (COT) [2]; 1 h, log[inhibitor] (M) -7.39, ZLYTE, ATP 100): 34%
inhibition at 0.0138 µM (MAP3K8 (COT) [2]; 1 h, log[inhibitor] (M) -7.86, ZLYTE, ATP 100): 24%
inhibition at 0.001514 µM (MAP3K8 (COT) [2]; 1 h, log[inhibitor] (M) -8.82, ZLYTE, ATP 100): 15%
inhibition at 0.0004898 µM (MAP3K8 (COT) [2]; 1 h, log[inhibitor] (M) -9.31, ZLYTE, ATP 100): 17%
inhibition at 0.004571 µM (MAP3K8 (COT) [2]; 1 h, log[inhibitor] (M) -[…], ZLYTE, ATP 100): 17%
Inhibition at 1 µM (%) (MAP3K8 (COT) [2]; MAP3K8 (COT), 1 µM, ZLYTE, ATP 100, listed as WEL028, 1 µM): 82%
inhibition at 1 µM (MAP3K8 (COT) [2]; read-out: Inhibition at 1 µM (%), MAP3K8 (COT), 1 µM, ZLYTE, ATP 100): 73%
inhibition at 1 µM (ERN2; 1 h): -1%
inhibition at 1 µM (ERN2; read-out: Inhibition at 1 µM (%)): -1%
Inhibition at 1 µM (%) (PRKX; [4]): -6% and 0%
inhibition at 1 µM (PRKX; [3]): -3%
Inhibition at 1 µM (%) (RPS6KA3 (RSK2); [4]): 12%
inhibition at 1 µM (RPS6KA3 (RSK2); [3]): 13%
inhibition at 1 µM (RPS6KA3 (RSK2); read-out: Inhibition at 1 µM (%), 1 µM, ZLYTE, ATP Km app): 13%
inhibition at 1 µM (PAK7 (KIAA1264); [3]): 12%
Inhibition at 1 µM (%) (PAK7 (KIAA1264); PAK7 (KIAA1264), 1 µM, ZLYTE, ATP Km app, listed as WEL028, 1 µM): 15%
inhibition at 1 µM (PAK7 (KIAA1264); read-out: Inhibition at 1 µM (%), PAK7 (KIAA1264), 1 µM, ZLYTE, ATP Km app): 10%
inhibition at 1 µM (MAPK3 (ERK1); [3]): 19%
Inhibition at 1 µM (%) (MAPK3 (ERK1); MAPK3 (ERK1), 1 µM, ZLYTE, ATP Km app, listed as WEL028, 1 µM): 14%
inhibition at 1 µM (MAPK3 (ERK1); read-out: Inhibition at 1 µM (%), MAPK3 (ERK1), 1 µM, ZLYTE, ATP Km app): 23%
Inhibition (%) (CSNK1G3 (CK1 gamma 3); 1 μM WEL028, 1 h preincubation): 0%
Inhibition at 1 µM (%) (CSNK1G3 (CK1 gamma 3); CSNK1G3 (CK1 gamma 3), 1 µM, ZLYTE, ATP Km app, listed as WEL028, 1 µM): 3% and -2%
inhibition at 1 µM (PRKCI (PKC iota); [3]): 10%
Inhibition at 1 µM (%) (PRKCI (PKC iota)): 15%
Inhibition at 1 µM (%) (PRKCI (PKC iota); listed as WEL028, 1 µM): 5%
Inhibition at 1 µM (%) (SNF1LK2; [4]): -8% and -5%
inhibition at 1 µM (SNF1LK2; [3]): -6%
inhibition at 1 µM (EPHB4; [3]): 1%
Inhibition at 1 µM (%) (EPHB4): 3%
Inhibition at 1 µM (%) (EPHB4; listed as WEL028, 1 µM): -1%
